Results taken from patent US5707855A (priority 1996, dated 1998).
Values after ≈ are worked out from the molar mass of the structure shown.

Tests used:
P. AERUGINOSA H309 [1] = type: cell-based; conditions: 10 μM NPN; fluorescence increase
Description: (§1) The second assay determined membrane permeability by the ability of 1-N-phenylnaphthylamine (NPN), a small fluorescent probe, to insert itself into the membrane. Normally, very little NPN can penetrate the outer membrane, but in the presence of a membrane permeabilizer it can insert into the hydrophobic membrane resulting in an increase in fluorescence (FIGS. 7 and 8). This N-phenylnaphthylamine uptake assay was previously described by Loh, et al., Antimicrobial Agents and Chemo., 26:546, 1984. Cells were prepared exactly the same as for the lysozyme lysis assay. 1-N-phenylnaphthylamine (NPN) was dissolved in acetone at a concentration of 500 μM. NPN fluorescence was measured in a Perkin-Elmer 650-10S fluorescent spectrophotometer using excitation and emission wavelengths set to 350 nm and 420 nm respectively, with slit widths of 5 nm. The assay was standardized by adding 20 μl of NPN (final concentration of 10 μM) and 10 μl of 0.64 mg/ml of polymyxin B (final concentration of 6.4 μg/ml) into 1 ml of cells, and adjusting the resulting fluorescence to read 90% deflection (90 arbitrary units). Various compounds were tested by adding 10 μl of different concentrations to a cuvette containing 1 ml of cells and 10 μM NPN. Permeabilizing activity was designated as the total fluorescence minus the fluorescence due to NPN alone. Following the fluorescence measurement, the OD600 of the cells was taken to ensure no significant cell lysis had occurred.

E. cloacae 218R1 [2] = type: cell-based; conditions: 10 μM NPN; fluorescence increase
Description: as §1

[3] = MICs of common antibiotics in the presence of sub-MIC levels of cationic peptides; type: cell-based; conditions: peptide at 1/2 MIC levels
Experimental: (§2) The minimum inhibitory concentrations of (MIC) of CEME, CEMA and melittin were determined for a number of different bacteria (Table 2). Briefly, cells were grown overnight at 37° C. in LB-S (Luria broth without any salt supplement) and diluted one in 10,000 in the same medium to give concentrations of about 10^4 to 10^5 CFU/ml. The broth dilutions were set up in a 96 well microtiter plate by putting 200 μl of LB-S containing the initial concentration of antibiotic or compound in column 1 and 100 μl of the same medium in columns 2-12. The compounds were diluted by taking 100 μl of broth from column 1 and mixing it with column 2, resulting in a one in two dilution. This was continued to column 10. Finally, 10 μl of bacteria were pipetted into columns 1-11, and the plates incubated overnight at 37° C. The next day the plates were scored for growth in the wells, and the MIC determined.
The ability of the cationic peptides to work synergystically was examined by determining the MIC values for some commonly used antibiotics in the presence of sub-MIC levels of cationic peptides (Table 4). […] This may be due to the high membrane permeabilizing activity of CEMA (see below). However, the peptides did lower the MIC of polymyxin B, possibly due to the fact that they are all taken up by the same pathway and are therefore aiding each other's uptake. Of interest is the influence that melittin has on the MIC of polymyxin B, given the […] membrane permeabilizing activity of melittin.

P. AERUGINOSA H309 [4] = test: Lysozyme lysis assay (outer membrane permeabilization); type: cell-based; conditions: 50 μg/ml lysozyme; decrease in OD600
Experimental: (§3) Membrane permeabilization by polycationic compounds was measured in two different assays. The first assay measured membrane disruption by the ability of lysozyme to reach the periplasm and cause cell lysis. […] The uptake of lysozyme into whole cells due to membrane permeabilization by various compounds was previously described in Hancock, et al., Antimicrobial Agents and Chemo., 19:777, 1981. Overnight cultures of P. aeruginosa H309 or E. cloacae 218R1 grown in LB-S were diluted 1 in 50 in fresh medium and grown to an OD600 =0.5-0.6. The cells were harvested in a Silencer H-103N clinical centrifuge at 1800 g for 10 min, washed once with one volume of assay buffer (5 mM HEPES pH 7.2, 5 mM KCN), and resuspended in the same buffer to an OD600 of 0.5. Assays consisted of 600 μl of cells with 50 μg/ml of chicken egg white lysozyme and varying concentrations of cationic compounds. Cell lysis was measured as a decrease in the OD600 in a Perkin-Elmer dual beam spectrophotometer. Parallel experiments performed without lysozyme enabled the measurement of the lytic activity of the compounds themselves. To test whether or not permeability to lysozyme could be inhibited by divalent cations, various concentrations of MgCl2 were added to the assay after the addition of lysozyme and before the addition of the test compound.

E. cloacae 218R1 [5] = test: as above; type: cell-based; conditions: 50 μg/ml lysozyme; decrease in OD600
Experimental: as §3

P. aeruginosa H103 LPS = test: Dansyl polymyxin (DPx) displacement from purified LPS; type: binding; conditions: on a μM basis
Experimental: In this assay, DPx was incubated with LPS to saturate the binding sites and then, while polycationic compounds are titrated into the reaction, displacement of the DPx was monitored by the decrease in fluorescence (FIG. 9).
The method of Moore, et al., (Antimicrobial Agents and Chemo., 29:496, 1987), was used to test how much DPx was needed to saturate the binding sties on LPS. Briefly, 5 μl samples of 100 μM DPx were titrated sequentially into 1 ml of 3 μg/ml of LPS until a maximum fluorescence was reached. The fluorescence was measured in a Perkin-Elmer 650-10S fluorescence spectrophotometer with an excitation wavelength of 340 nm and an emission wavelength of 485 nm using slit widths of 5 nm. […] For the binding inhibition assays (Moore, et al., Antimicrobial Agents and Chemo., 29:496, 1987), 2.5 μM DPx was added to 3 μg/ml of H103 LPS in 5 mM HEPES pH 7.2. The test compounds were added 5 μl at a time and the decrease in fluorescence due to displacement of the DPx from the LPS was recorded.

E. cloacae = type: cell-based; conditions: strain 218S, Parent of 218R1
Experimental: as §2

E. coli = type: cell-based; conditions: strain UB1005, Parent of DC2
Experimental: as §2

P. aeruginosa = type: cell-based; conditions: against many bacterial species
Experimental: as §2

S. typhimurium = type: cell-based; conditions: C590 versus C587
Experimental: as §2

CC[C@H](C)[C@H](NC(=O)CNC(=O)[C@@H](NC(=O)[C@H](CCCCN)NC(=O)[C@H](CCCCN)NC(=O)[C@H](Cc1ccccc1)NC(=O)[C@H](CC(C)C)NC(=O)[C@H](CCCCN)NC(=O)[C@H](Cc1c[nH]c2ccccc12)NC(=O)[C@@H](N)CCCCN)[C@@H](C)CC)C(=O)NCC(=O)N[C@@H](C)C(=O)N[C@H](C(=O)N[C@@H](CC(C)C)C(=O)N[C@@H](CCCCN)C(=O)N[C@H](C(=O)N[C@@H](CC(C)C)C(=O)N[C@H](C(=O)N[C@H](C(=O)NCC(=O)N[C@@H](CC(C)C)C(=O)N1CCC[C@H]1C(=O)N[C@@H](C)C(=O)N[C@@H](CC(C)C)C(=O)N[C@@H](CCCCN)C(=O)N[C@@H](CC(C)C)C(=O)N[C@H](C(=O)N[C@@H](CCCCN)C(=O)O)[C@@H](C)O)[C@@H](C)O)[C@@H](C)O)C(C)C)C(C)C [CEMA]
Activity in opening up the membrane to NPN (P. AERUGINOSA H309 [1]): equally active
Activity in opening up the membrane to NPN (E. cloacae 218R1 [2]): equally active
Reduction of the MICs of ceftazidime, imipenem and tetracycline [3]: 2 fold
Permeabilization of the outer membrane to lysozyme, compared with polymyxin B (P. AERUGINOSA H309 [4]): stronger permeabilizer for lysozyme than polymyxin B
Permeabilization of the outer membrane to lysozyme, compared with polymyxin B (E. cloacae 218R1 [5]): stronger permeabilizer for lysozyme than polymyxin B
Affinity for LPS compared with polymyxin B (P. aeruginosa H103 LPS): higher affinity for LPS than polymyxin B
MIC (E. cloacae): 2.8 µg/mL (≈ 0.913 µM)
MIC (E. coli): 2.8 µg/mL (≈ 0.913 µM)
Antibiotic activity compared with CEME (P. aeruginosa): two-fold improved antibiotic activity
Sensitivity of defensin sensitive strain C590 relative to parent (MIC change) (S. typhimurium): four-fold more sensitive
